The values that follow come from PMC10851415 (Biochemistry, 2024).

Assay [1] deals with T1, WT PAN endonuclease (Influenza A virus, UniProt C3W5S0, DEL52-63/E64G). It is filed as binding, influenza A/California/04/2009(H1N1).
Assay [2] concerns the target T2, I38T mutant PAN endonuclease (Influenza A virus, UniProt C3W5S0, DEL52-63/E64G/I38T). The class given is binding, influenza A/California/04/2009(H1N1).
Assay [3] deals with T3, E23K mutant PAN endonuclease (Influenza A virus, UniProt C3W5S0, DEL52-63/E23K/E64G). It is filed as binding, influenza A/California/04/2009(H1N1).
Assay [4] concerns the target T1, WT PAN endonuclease. The class given is binding, influenza A/California/04/2009(H1N1). The conditions noted are these: 200 µM.
In assay [5] the target is T2, I38T mutant PAN endonuclease. The class given is binding, influenza A/California/04/2009(H1N1). This is another data set of the same source.
In assay [6] the target is T3, E23K mutant PAN endonuclease. The class given is binding, influenza A/California/04/2009(H1N1). The source holds these as a separate data set.
The target of assay [7] is A36V mutant PAN endonuclease (Influenza A virus, UniProt C3W5S0, A36V/DEL52-63/E64G). The class given is binding, influenza A/California/04/2009(H1N1). The settings on record: 200 µM.
The test system of a further assay is I38T mutant. The conditions noted are these: cited from earlier work.
A further assay deals with WT and I38T mutants. The settings on record: cited from earlier work.

With baloxavir acid [BXA], the Kd turned out to be 0.343 ± 0.106 µM at WT PAN endonuclease [1], 9.3 ± 4.2 µM in assay [2] and 26.1 ± 11.2 µM in assay [3]. In addition, the ΔTM is 22.9 ±0.08 °C at WT PAN endonuclease [4], 14.9 ±0.04 °C in assay [5] (200 µM), 19.8 ±0.06 °C in assay [6] (200 µM) and 21.7 ±0.11 °C in assay [7]. In addition, the “difference in ΔTM compared to WT (lower)” value in assay [5] was ~ 8 °C; in assay [6], below 3 °C. For the same substance, the reduction in affinity in the assay on I38T mutant is on record as 30- to 50 fold. In addition, the “ΔTM melting value between the WT and I38T mutants” value with WT and I38T mutants is 8-10 °C.
